For this assay, the system named is Male CD1 mice. Nature of the assay: Passive avoidance test following ECS-induced amnesia. It counts as in vivo. As to conditions: i.p., 30 minutes before training, retention assessed 24 hours later. How it is done: In order to assess the antiamnesic activity the passive avoidance test in mice was used.
Male CD1 mice (Charles River) weighting 25-26 g fed on a normal diet were used for the ECS-induced amnesia test.
The compounds were administered i.p.at doses equimolar to 9 and 0.9 mg/kg […]. The compounds were dissolved in saline.
The apparatus for passive avoidance conditioning was a black plastic chamber (42 x 42 cm, height 40 cm) provided with a floor constructed of metal rods that could be electrified. From the front wall extended a white runway, 30 cm long and 10 cm wide provided with side walls 12 cm high, which led into the box through a guillotine door.
30 minutes following treatment with the compounds, the animals were placed on the runway. After one minute of adaptation, the door was raised and the time employed by the animal to enter the darkened box with all four feet was recorded.
Upon entry, the guillotine door was lowered and three seconds thereafter the rods were electrified, 0.24 mA for 2 seconds.
The mouse was then removed from the chamber and immediately administered an electroshock delivered through spring clips attached to the ears (square wave, intensity 20 mA, amplitude 0.6 msec, duration 0.5 s, frequency 50 Hz).
Immediately thereafter the animal was placed in the housing cage. Retention was assessed 24 hours later by placing the animal on the runway and again evaluating the latency in entering the chamber, using an end-point of 300 seconds (Bammer, loc.cit.).
In each experiment, two groups of animals in addition to the treated ones were used, that were defined as follows: • (1) ceiling control animals (treated with placebo and not subjected to amnesia treatment) to ensure that these animals not treated with the amnesia agent remembered the task; • (2) base-line control animals (treated with placebo and subjected to amnesia treatment) to ensure that ECS produced amnesia in the animals not treated with the compounds of the present invention.
The sum ΣAij encompasses all the possible pairs obtained by combining each term Xi with each term Xj.

Setting [1] is: dose equimolar to 0.9 mg/kg PIRACETAM
[2] abbreviates: dose equimolar to 9 mg/kg PIRACETAM

On to `N[C@H]1CCNC1=O` [ST 802, (S)-3-amino-2-pyrrolidinone, reference compound], for which the “AR (percentage of amnesia reversal)” value under setting [1] is listed as 24%. `O=CN[C@H]1CCNC1=O` [ST 879, (S)-3-(formylamino)-2-pyrrolidinone]: the “AR (percentage of amnesia reversal)” value was found to be 53% under setting [1] and 9% under setting [2]. In the same order, the values of `O=C(N[C@H]1CCNC1=O)c1cccc(C(F)(F)F)c1` [ST 835, (S)-3-(3-trifluoromethylbenzoylamino)-2-pyrrolidinone] are 51% and 58%.

(Values after patent EP0519877B1, “3-Acylamino-2-pyrrolidinones as enhancers of the processes of learning and memory and pharmaceutical compositions containing same” (Sigma-Tau Industrie Farmaceutiche Riunite S.p.A., priority 1991, dated 1992).)
